Data taken from patent publication US11059718B2, “Methods and compositions using peptides and proteins with C-terminal elements” (Sanford Burnham Prebys Medical Discovery Institute, priority 2009, dated 2021).

How the values were obtained:
[1] = tested on: orthotopic 22Rv-1 human prostate cancer xenografts; details: mouse, in vivo
Description: The circulation time was 2 hrs. for the free peptides, 15 min. for the peptide-displaying phage, and 3 hrs. for the peptide-coupled micelles. […] Representative fields from multiple sections of each of these three tumors are shown. Scale bars=50 μm. […] The samples were subjected to image analysis with Scanscope CM-1 scanner for quantification of the FAM-positive areas. Statistical analysis was performed with Student's t-test. n=3; error bars, s.e.m.; triple asterisk, p<0.001.

[2] = tested on: heart (cardiomyocyte apoptosis); assay: TUNEL staining of heart sections after DOX-liposome treatment; format: in vivo, mice; details: 1 mg DOX/kg + iRGD daily, 17 days
Description: (FIGS. 14A and 14B) Nude mice bearing orthotopic 22Rv1 human prostate tumors were intravenously injected with DOX-liposomes (3 mg DOX/kg) followed 5 min later by 100 nmol iRGD or PBS. Tumors and tissues were collected 3 hours later. In (FIG. 14A), the tumors were sectioned and stained with an anti-CD31 antibody. The doxorubicin is represented by the light specs that look like four halos in the left panel. Scale bars=200 μm, n=3. In (FIG. 14B), DOX in the tissues was quantified. […] The tumors were harvested and weighed after 17 days of treatment. The number of mice in each group was 5. One of 3 experiments that gave similar results is shown. (FIG. 14D) TUNEL staining was performed immunohistochemically on tissue sections of the tumor and heart samples from the treatment study, and quantified for positivity. Statistical analyses were performed with Student's r-test in (FIG. 14B), and ANOVA in (FIG. 14C) and (FIG. 14D); error bars, s.e.m.; n.s., not significant; single asterisk, p<0.05; double asterisk, p<0.01; triple asterisk, p<0.001. […]
Cryo-sections were immunohistochemically stained, scanned with a Scanscope CM-1 scanner, and positively stained areas were quantified with the ImageScope software (Aperio Technologies, Vista, Calif.; Sugahara et al., 2009). […]

tumor = details: VEGF locally superfused on tumors; cited from earlier work

Row | Molecule | homing to normal tissue [1] | cardiomyocyte apoptosis (TUNEL), combo group [2] | enhancement of extravasation of albumin and nanoparticles within the tumor (tumor)
1 | N=C(N)NCCC[C@@H]1NC(=O)[C@@H](N)CSSC[C@@H](C(=O)O)NC(=O)[C@H](CC(=O)O)NC(=O)[C@@H]2CCCN2C(=O)CNC(=O)[C@H](CCCCN)NC(=O)[C@H](CC(=O)O)NC(=O)CNC1=O [iRGD] | does not detectably home to any normal tissue | minimally present | –
2 | VEGF | – | – | up to 4 fold
